The subject of one test is BHK-21. The test is described as follows: BHK-21 cell toxicity, dose response, cytotoxicity control, plate reader, cherry-pick samples (AID 687030). The format is functional, cell-based. As to conditions: Mesocricetus auratus.
A further test concerns Vero. Nature of the test: Vero cell toxicity, dose response, cytotoxicity control, plate reader, cherry-pick samples (AID 687020). The format is functional, cell-based. As to conditions: Chlorocebus sabaeus.
The target of test [1] is FAD-linked sulfhydryl oxidase ALR (Homo sapiens, UniProt P55789). The test is described as follows: inhibitors of human ALR sulfhydryl oxidase, dose response, biochemical, H2O2 detection, luminescence, cherry-pick (AID 493248).
FAD-linked sulfhydryl oxidase ALR, sequence (P55789 whole entry): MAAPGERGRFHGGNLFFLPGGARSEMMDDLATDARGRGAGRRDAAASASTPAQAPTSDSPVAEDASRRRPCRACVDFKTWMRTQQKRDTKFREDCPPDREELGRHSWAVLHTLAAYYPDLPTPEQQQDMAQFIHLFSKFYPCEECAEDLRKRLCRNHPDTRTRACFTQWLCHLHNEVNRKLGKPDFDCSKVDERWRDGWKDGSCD
Test [2] deals with SWI/SNF-related matrix-associated actin-dependent regulator of chromatin subfamily A member 2 (Homo sapiens, UniProt P51531). Nature of the test: Luminescence-based cell-based high throughput dose response assay to identify activators of the function of SWI/SNF related, matrix associated, actin dependent regulator of chromatin, subfamily a, member 2 (SMARCA2, BRM). The format is functional.
SWI/SNF-related matrix-associated actin-dependent regulator of chromatin subfamily A member 2, sequence (P51531 whole entry): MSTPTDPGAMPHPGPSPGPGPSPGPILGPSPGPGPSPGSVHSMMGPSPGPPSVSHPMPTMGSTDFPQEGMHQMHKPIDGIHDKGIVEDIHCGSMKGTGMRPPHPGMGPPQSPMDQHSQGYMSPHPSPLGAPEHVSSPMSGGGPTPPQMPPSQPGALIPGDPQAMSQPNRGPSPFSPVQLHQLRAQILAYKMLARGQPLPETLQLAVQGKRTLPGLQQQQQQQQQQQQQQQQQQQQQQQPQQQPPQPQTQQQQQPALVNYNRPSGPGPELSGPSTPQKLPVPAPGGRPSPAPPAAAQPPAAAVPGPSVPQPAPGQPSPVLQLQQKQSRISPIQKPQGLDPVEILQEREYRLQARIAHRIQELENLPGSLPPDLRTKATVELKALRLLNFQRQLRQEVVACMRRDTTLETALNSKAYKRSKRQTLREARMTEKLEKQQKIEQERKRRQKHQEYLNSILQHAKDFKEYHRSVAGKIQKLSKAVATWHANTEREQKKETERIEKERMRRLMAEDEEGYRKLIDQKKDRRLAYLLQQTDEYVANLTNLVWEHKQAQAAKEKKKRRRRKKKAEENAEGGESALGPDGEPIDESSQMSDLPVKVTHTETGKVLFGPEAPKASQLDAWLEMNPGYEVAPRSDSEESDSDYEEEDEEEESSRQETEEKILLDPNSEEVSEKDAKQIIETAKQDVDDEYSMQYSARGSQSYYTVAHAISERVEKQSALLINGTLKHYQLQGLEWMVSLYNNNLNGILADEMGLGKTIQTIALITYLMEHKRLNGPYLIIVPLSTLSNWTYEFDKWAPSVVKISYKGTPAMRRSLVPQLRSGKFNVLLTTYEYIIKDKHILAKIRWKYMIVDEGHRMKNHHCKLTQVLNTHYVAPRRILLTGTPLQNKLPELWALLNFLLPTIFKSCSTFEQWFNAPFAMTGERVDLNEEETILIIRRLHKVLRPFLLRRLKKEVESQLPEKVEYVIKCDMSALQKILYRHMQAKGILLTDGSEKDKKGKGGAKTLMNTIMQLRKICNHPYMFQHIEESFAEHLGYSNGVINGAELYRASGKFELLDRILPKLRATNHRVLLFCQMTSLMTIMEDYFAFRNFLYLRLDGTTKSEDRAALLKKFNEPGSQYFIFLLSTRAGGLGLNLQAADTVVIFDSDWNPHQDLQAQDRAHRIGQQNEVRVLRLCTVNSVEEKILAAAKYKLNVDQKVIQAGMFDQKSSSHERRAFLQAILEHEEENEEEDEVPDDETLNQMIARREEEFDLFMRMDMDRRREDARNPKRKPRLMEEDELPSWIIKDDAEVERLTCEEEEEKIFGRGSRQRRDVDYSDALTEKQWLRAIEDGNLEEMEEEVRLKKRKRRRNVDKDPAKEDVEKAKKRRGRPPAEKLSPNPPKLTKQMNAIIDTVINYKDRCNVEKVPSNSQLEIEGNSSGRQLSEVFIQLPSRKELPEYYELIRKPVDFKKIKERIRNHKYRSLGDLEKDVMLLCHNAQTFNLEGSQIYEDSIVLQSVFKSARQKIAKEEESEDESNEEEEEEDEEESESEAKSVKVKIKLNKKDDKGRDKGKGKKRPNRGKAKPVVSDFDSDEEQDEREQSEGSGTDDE

Test [3] in a line: Counterscreen for activators of the function of SWI/SNF related, matrix associated, actin dependent regulator of chromatin, subfamily a, member 2 (SMARCA2, BRM): Luminescence-based cell-based high throughput dose response assay to identify non-selective compounds using the VP16 reporter assay. The format is functional. For orientation: A counterscreen serves to expose hits that act by an unwanted route or on another target.

A short description of test [4]: T. cruzi growth inhibition in host cells, dose response, cell-based, plate reader, dry powder, set 2 (AID 652275). The class given is functional.
The nature of test [5]: T. cruzi intracellular amastigote growth inhibition, dose response, imaging, CA-I/72 strain, bovine embryo skeletal muscle, dry powder (AID 651885). The class given is functional, cell-based.
Test [6] in a line: microbe, parasite or virus in culture. The format is functional. To be noted: Mycobacterium tuberculosis.
For test [7], the target named is T1, Corticotropin-releasing factor receptor 2/Corticotropin-releasing factor-binding protein (Homo sapiens, UniProt P24387+Q13324).
T1 sequence (Q13324 whole entry): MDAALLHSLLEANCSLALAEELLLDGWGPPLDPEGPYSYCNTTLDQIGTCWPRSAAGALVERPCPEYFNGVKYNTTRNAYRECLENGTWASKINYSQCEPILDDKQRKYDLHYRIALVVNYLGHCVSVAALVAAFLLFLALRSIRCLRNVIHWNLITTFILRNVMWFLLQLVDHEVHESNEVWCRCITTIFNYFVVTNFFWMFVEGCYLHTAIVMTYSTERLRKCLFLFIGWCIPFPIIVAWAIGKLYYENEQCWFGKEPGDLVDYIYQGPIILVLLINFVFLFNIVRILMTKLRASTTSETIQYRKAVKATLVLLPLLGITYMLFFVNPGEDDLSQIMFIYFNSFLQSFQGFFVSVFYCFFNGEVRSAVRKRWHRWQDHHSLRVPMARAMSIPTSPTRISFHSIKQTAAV
T1 sequence (P24387 whole entry): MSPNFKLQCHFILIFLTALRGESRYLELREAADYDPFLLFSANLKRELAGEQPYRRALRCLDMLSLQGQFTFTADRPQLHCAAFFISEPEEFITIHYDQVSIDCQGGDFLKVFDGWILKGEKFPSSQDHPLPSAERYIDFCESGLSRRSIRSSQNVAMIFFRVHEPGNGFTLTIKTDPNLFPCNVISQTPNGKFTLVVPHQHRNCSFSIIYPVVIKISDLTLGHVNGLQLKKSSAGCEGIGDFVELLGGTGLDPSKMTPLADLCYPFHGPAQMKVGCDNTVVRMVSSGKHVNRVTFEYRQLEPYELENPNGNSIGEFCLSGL
The test is described as follows: Dose Response confirmation of uHTS hits for small molecule antagonists of the CRF-binding protein and CRF-R2 receptor complex. As to conditions: read-out: IC50_Mean. The class given is functional.

Test [8] addresses T1, Corticotropin-releasing factor receptor 2/Corticotropin-releasing factor-binding protein. Nature of the test: activators of CRF receptor 2 with binding protein – uHTS hits, confirmation (AID 602473). The format is functional. To be noted: read-out: EC50_Mean.
A short description of test [9]: CRF-BP/CRF-R2 complex antagonists, dose response, cell-based, uHTS hits, 384-well (AID 651639). The class given is functional, Homo sapiens. As to conditions: read-out: IC50_Mean.
The target in a further test is T2, Coagulation factor XII (Homo sapiens, UniProt P00748).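 Also: activated factor XIIa alpha cleaving a fluorogenic AMC peptide substrate; inhibitor potency from loss of enzyme activity.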
T2 sequence (P00748 whole entry): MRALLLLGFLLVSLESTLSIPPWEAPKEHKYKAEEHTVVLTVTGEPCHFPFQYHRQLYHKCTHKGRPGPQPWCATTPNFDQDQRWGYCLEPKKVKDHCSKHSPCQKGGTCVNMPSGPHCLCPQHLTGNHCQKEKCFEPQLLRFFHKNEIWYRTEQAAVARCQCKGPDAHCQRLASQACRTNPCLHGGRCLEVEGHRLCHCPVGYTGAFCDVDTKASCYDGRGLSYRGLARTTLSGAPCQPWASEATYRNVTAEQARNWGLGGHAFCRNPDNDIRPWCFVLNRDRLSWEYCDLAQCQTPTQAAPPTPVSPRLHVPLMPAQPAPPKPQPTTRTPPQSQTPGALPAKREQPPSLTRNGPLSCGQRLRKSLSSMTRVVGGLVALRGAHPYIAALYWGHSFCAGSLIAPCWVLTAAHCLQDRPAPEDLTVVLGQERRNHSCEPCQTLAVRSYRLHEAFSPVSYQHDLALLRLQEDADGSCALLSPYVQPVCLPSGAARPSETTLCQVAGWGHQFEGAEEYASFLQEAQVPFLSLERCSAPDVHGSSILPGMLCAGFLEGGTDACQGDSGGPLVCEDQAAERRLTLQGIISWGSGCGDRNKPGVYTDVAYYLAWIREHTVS
The class given is functional.

In a further test the test system is HeLa. The test is described as follows: HeLa cell cytotoxicity, dose response, cytotoxicity control for MITF activator project, CellTiter-Glo luminescence, cherry-pick samples (AID 540259). The format is functional, cell-based. To be noted: Homo sapiens. For orientation: ATP-based viability assays read luminescence as a measure of living cells.
Test [10] has as its target T3, Methionyl-tRNA synthetase, putative (Trypanosoma brucei brucei, UniProt Q38C91). The class given is functional, Trypanosoma brucei brucei strain 927/4 GUTat10.1.
The nature of test [11]: Counterscreen for inhibitors of Trypanosoma brucei methionyl tRNA synthetase (MetRS): Luminescence-based cell-based high throughput dose response assay to identify compounds that are cytotoxic to Jurkat human T lymphocyte cells. The class given is functional.
Test [12] concerns the target T3, Methionyl-tRNA synthetase, putative. The class given is functional, Trypanosoma brucei brucei strain 927/4 GUTat10.1. The source holds these as a separate data set.

Structures are written as SMILES. Activity calls are given as the source filed them.

T3 sequence (Q38C91 whole entry): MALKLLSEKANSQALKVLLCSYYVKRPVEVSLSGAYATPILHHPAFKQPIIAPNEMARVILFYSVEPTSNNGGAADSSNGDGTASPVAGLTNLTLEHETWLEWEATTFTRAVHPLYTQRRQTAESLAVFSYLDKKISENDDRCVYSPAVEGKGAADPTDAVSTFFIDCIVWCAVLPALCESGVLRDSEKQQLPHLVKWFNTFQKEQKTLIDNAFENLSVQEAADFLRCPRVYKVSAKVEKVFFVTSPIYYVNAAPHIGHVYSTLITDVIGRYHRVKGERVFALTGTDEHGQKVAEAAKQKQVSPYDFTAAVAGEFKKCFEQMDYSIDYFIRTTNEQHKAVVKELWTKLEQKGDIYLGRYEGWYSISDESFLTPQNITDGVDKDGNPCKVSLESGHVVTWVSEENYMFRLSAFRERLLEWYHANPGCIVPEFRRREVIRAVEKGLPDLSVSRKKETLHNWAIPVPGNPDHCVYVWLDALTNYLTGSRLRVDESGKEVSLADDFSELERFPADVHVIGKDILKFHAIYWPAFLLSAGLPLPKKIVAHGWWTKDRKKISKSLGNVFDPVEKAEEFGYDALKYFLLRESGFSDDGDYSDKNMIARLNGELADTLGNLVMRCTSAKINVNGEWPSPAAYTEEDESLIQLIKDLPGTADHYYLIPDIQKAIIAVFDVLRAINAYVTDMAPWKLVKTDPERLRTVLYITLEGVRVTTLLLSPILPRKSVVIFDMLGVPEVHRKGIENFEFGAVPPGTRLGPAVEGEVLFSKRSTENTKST

The AC50 is the concentration giving half of the maximal activity seen. Regarding `NNC(=O)c1ccc(-c2ccccc2F)cc1`, the AC50 in the test with BHK-21 is 19.3 µM (active).

Turning to `COc1ccc(CC(=O)NCC2CCCN(Cc3ccc(OC(F)(F)F)cc3)C2)cc1` (stereo unspecified), in the test with Vero, the half-maximal activity concentration (AC50) was 17.1 µM (active).

As for `COc1ccc(-n2nnnc2S(=O)(=O)Cc2ccc(C(=O)O)cc2)cc1`, the AC50 in [1] is 0.038 µM (active). The EC50 in test [2] and in test [3] was > 91.2 µM (inactive) each time.

Regarding `C[C@@H]1CN([C@@H](C)CO)C(=O)c2cccc(NC(=O)c3cnccn3)c2O[C@H]1CN(C)Cc1ccc(Oc2ccccc2)cc1`, the AC50 in [4] was 1.96 µM (active). Further, in test [5], the IC50 was > 20 µM (inactive).

`Cc1cccc(N(C(=O)c2nsc(Cl)c2Cl)C(C(=O)NC2CCCC2)c2ccc(O)cc2)c1C` (stereo unspecified): the CC50 in [6] was 39 µM (active). The results for the IC50 in test [7] and in test [9] were 6.4 µM (active) and > 20 µM (inactive), respectively. The EC50 in test [8] is > 53 µM (inactive).

`O=C(Cn1c(/C=C/c2ccccc2)nc2ccccc21)Nc1ccc(F)cc1`: the IC50 was > 50 µM (inactive) at Coagulation factor XII, 12.2 µM (inactive) in [10], 83.3 µM (inactive) in test [11] and 8.74 µM (active) in test [12]. Further, the half-maximal activity concentration (AC50) in the test on HeLa was 301 µM (active).
